Reference: US4965280A, “Antifungal carbinols” (E. I. Du Pont de Nemours and Company, priority 1989, dated 1990)

Key:
Assay in all cases: Test E
[1] = tested on: SNTLS CHAMOMILE; assay type: in vivo, Matricaria indora
[2] = tested on: BONANZA BARLEY; assay type: in vivo, Hordeum vulgare cv. Bonanza
[3] = tested on: CMN CHICKWEED; assay type: in vivo, Stellaria media
[4] = tested on: PARK WHEAT; assay type: in vivo, Triticum aestivum cv. Park
[5] = tested on: GREEN FOXTAIL; assay type: in vivo, Setaria viridis
[6] = tested on: WILD OATS; assay type: in vivo, Avena fatua
[7] = tested on: JET RAPE; assay type: in vivo, Brassica napus cv. Jet Neuf
[8] = tested on: MUSTARD SPP.; assay type: in vivo, Brassica spp.
[9] = tested on: BLACKGRASS; assay type: in vivo, Alopercurus mysuroides
Source text: Seeds of the following crops and weeds are sown into 15 cm pots containing Sassafras sandy loam soil: wheat (Triticum aestivum cv. Park), barley (Hordeum vulgare cv. Bonanza), sugarbeet (Beta vulgaris cv. USH-11), rapeseed (Brassica napus cv. Jet Neuf), black nightshade (Solanum nigrum), chickweed (Stellaria media), lambsquarter (Chenopodium album), Galium aparine, knotweed (Polygonum aviculare), Kochia scoparia, Matricaria indora, redroot pigweed (Amaranthus retroflexus), smartweed (Polygonum persicaria), speedwell (Veronica persica), wild buckwheat (Polygonum convolvulus), wild mustard (Brassica spp.), wild radish (Raphanus raphanistrum), annual bluegrass (PO annua), annual ryegrass (Lolium multiflorum), blackgrass (Alopercurus mysuroides), green foxtail (Setaria viridis), and wild oats (Avena fatua). Compounds are formulated in a nonphytotoxic solvent and applied to the plants as a foliar spray or applied to the soil surface. Plants are treated at two stages: preemergence, or postemergence when the sugarbeets are at the 2-3 true leaf stage. Plants are grown in a temperature-controlled greenhouse for the duration of the test.
Weed control and crop injury are evaluated visually at 3-4 weeks after compound application, using a scale of 0 to 100%, where 0=no injury and 100=complete death of the plant. All plants are rated with respect to untreated plants (checks) grown in the greenhouse under identical conditions to the treated plants.

[10] = tested on: ANN. BLUEGRASS; assay type: in vivo, PO annua
[11] = tested on: CTCHWD BEDSTRAW; assay type: in vivo, Galium aparine
[12] = tested on: ITALN. RYEGRASS; assay type: in vivo, Lolium multiflorum

Structure (SMILES): C=C(c1ccccc1)C(O)(Cn1cncn1)c1ccc(F)cc1F (stereo not drawn) [Example 52, 2-(2,4-Difluorophenyl)-3-phenyl-1-(1H-1,2,4-triazol-1-yl)-3-buten-2-ol]
- plant response ([1]; POSTEMERGENCE 0064 GM/HA): 20%
- plant response ([1]; POSTEMERGENCE 0125 GM/HA): 50%
- plant response ([1]; POSTEMERGENCE 0250 GM/HA): 50%
- plant response ([1]; POSTEMERGENCE 0500 GM/HA): 85%
- plant response ([1]; PREEMERGENCE 0250 GM/HA): 100%
- plant response ([2]; POSTEMERGENCE 0064 GM/HA): 0%
- plant response ([2]; POSTEMERGENCE 0125 GM/HA): 20%
- plant response ([2]; POSTEMERGENCE 0250 GM/HA): 20%
- plant response ([2]; POSTEMERGENCE 0500 GM/HA): 40%
- plant response ([2]; PREEMERGENCE 0250 GM/HA): 100%
- plant response ([3]; POSTEMERGENCE 0064 GM/HA): 0%
- plant response ([3]; POSTEMERGENCE 0125 GM/HA): 0%
- plant response ([3]; POSTEMERGENCE 0250 GM/HA): 0%
- plant response ([3]; POSTEMERGENCE 0500 GM/HA): 0%
- plant response ([3]; PREEMERGENCE 0250 GM/HA): 0%
- plant response ([4]; POSTEMERGENCE 0064 GM/HA): 30%
- plant response ([4]; POSTEMERGENCE 0125 GM/HA): 30%
- plant response ([4]; POSTEMERGENCE 0250 GM/HA): 40%
- plant response ([4]; POSTEMERGENCE 0500 GM/HA): 50%
- plant response ([4]; PREEMERGENCE 0250 GM/HA): 70%
- plant response ([5]; POSTEMERGENCE 0064 GM/HA): 0%
- plant response ([5]; POSTEMERGENCE 0125 GM/HA): 0%
- plant response ([5]; POSTEMERGENCE 0250 GM/HA): 40%
- plant response ([5]; POSTEMERGENCE 0500 GM/HA): 75%
- plant response ([5]; PREEMERGENCE 0250 GM/HA): 100%
- plant response ([6]; POSTEMERGENCE 0064 GM/HA): 0%
- plant response ([6]; POSTEMERGENCE 0125 GM/HA): 0%
- plant response ([6]; POSTEMERGENCE 0250 GM/HA): 20%
- plant response ([6]; POSTEMERGENCE 0500 GM/HA): 30%
- plant response ([6]; PREEMERGENCE 0250 GM/HA): 70%
- plant response ([7]; POSTEMERGENCE 0064 GM/HA): 0%
- plant response ([7]; POSTEMERGENCE 0125 GM/HA): 0%
- plant response ([7]; POSTEMERGENCE 0250 GM/HA): 20%
- plant response ([7]; POSTEMERGENCE 0500 GM/HA): 40%
- plant response ([7]; PREEMERGENCE 0250 GM/HA): 20%
- plant response ([8]; POSTEMERGENCE 0064 GM/HA): 0%
- plant response ([8]; POSTEMERGENCE 0125 GM/HA): 0%
- plant response ([8]; POSTEMERGENCE 0250 GM/HA): 20%
- plant response ([8]; POSTEMERGENCE 0500 GM/HA): 50%
- plant response ([8]; PREEMERGENCE 0250 GM/HA): 50%
- plant response ([9]; POSTEMERGENCE 0064 GM/HA): 0%
- plant response ([9]; POSTEMERGENCE 0125 GM/HA): 0%
- plant response ([9]; POSTEMERGENCE 0250 GM/HA): 20%
- plant response ([9]; POSTEMERGENCE 0500 GM/HA): 60%
- plant response ([9]; PREEMERGENCE 0250 GM/HA): 20%
- plant response ([10]; POSTEMERGENCE 0064 GM/HA): 30%
- plant response ([10]; POSTEMERGENCE 0125 GM/HA): 40%
- plant response ([10]; POSTEMERGENCE 0250 GM/HA): 60%
- plant response ([10]; POSTEMERGENCE 0500 GM/HA): 70%
- plant response ([10]; PREEMERGENCE 0250 GM/HA): 100%
- plant response ([11]; POSTEMERGENCE 0064 GM/HA): 20%
- plant response ([11]; POSTEMERGENCE 0125 GM/HA): 80%
- plant response ([11]; POSTEMERGENCE 0250 GM/HA): 70%
- plant response ([11]; POSTEMERGENCE 0500 GM/HA): 100%
- plant response ([11]; PREEMERGENCE 0250 GM/HA): 100%
- plant response ([12]; POSTEMERGENCE 0064 GM/HA): 0%
- plant response ([12]; POSTEMERGENCE 0125 GM/HA): 20%
- plant response ([12]; POSTEMERGENCE 0250 GM/HA): 50%
- plant response ([12]; POSTEMERGENCE 0500 GM/HA): 80%
- plant response ([12]; PREEMERGENCE 0250 GM/HA): 70%

Structure (SMILES): C=C(c1ccc(Cl)cc1Cl)C(O)(Cn1cncn1)c1ccccc1F (stereo not drawn) [Example 107]
- plant response ([1]; PREEMERGENCE 0250 GM/HA): 70%
- plant response ([2]; PREEMERGENCE 0250 GM/HA): 80%
- plant response ([3]; PREEMERGENCE 0250 GM/HA): 0%
- plant response ([4]; PREEMERGENCE 0250 GM/HA): 30%
- plant response ([5]; PREEMERGENCE 0250 GM/HA): 100%
- plant response ([6]; PREEMERGENCE 0250 GM/HA): 0%
- plant response ([7]; PREEMERGENCE 0250 GM/HA): 30%
- plant response ([8]; PREEMERGENCE 0250 GM/HA): 20%
- plant response ([9]; PREEMERGENCE 0250 GM/HA): 20%
- plant response ([10]; PREEMERGENCE 0250 GM/HA): 20%
- plant response ([11]; PREEMERGENCE 0250 GM/HA): 0%
- plant response ([12]; PREEMERGENCE 0250 GM/HA): 0%

Structure (SMILES): C=C(c1ccc(F)cc1)C(O)(Cn1cncn1)c1ccc(F)cc1F (stereo not drawn) [Example 4, 2-(2,4-Difluorophenyl)-3-(4-fluorophenyl)-1-(1H-1,2,4-triazol-1-yl)-3-buten-2-ol]
- plant response ([1]; POSTEMERGENCE 0064 GM/HA): 30%
- plant response ([1]; POSTEMERGENCE 0125 GM/HA): 50%
- plant response ([1]; POSTEMERGENCE 0250 GM/HA): 70%
- plant response ([1]; POSTEMERGENCE 0500 GM/HA): 85%
- plant response ([1]; PREEMERGENCE 0500 GM/HA): 100%
- plant response ([2]; POSTEMERGENCE 0064 GM/HA): 20%
- plant response ([2]; POSTEMERGENCE 0125 GM/HA): 30%
- plant response ([2]; POSTEMERGENCE 0250 GM/HA): 40%
- plant response ([2]; POSTEMERGENCE 0500 GM/HA): 60%
- plant response ([2]; PREEMERGENCE 0500 GM/HA): 100%
- plant response ([3]; POSTEMERGENCE 0064 GM/HA): 0%
- plant response ([3]; POSTEMERGENCE 0125 GM/HA): 0%
- plant response ([3]; POSTEMERGENCE 0250 GM/HA): 0%
- plant response ([3]; POSTEMERGENCE 0500 GM/HA): 0%
- plant response ([3]; PREEMERGENCE 0500 GM/HA): 0%
- plant response ([4]; POSTEMERGENCE 0064 GM/HA): 0%
- plant response ([4]; POSTEMERGENCE 0125 GM/HA): 10%
- plant response ([4]; POSTEMERGENCE 0250 GM/HA): 30%
- plant response ([4]; POSTEMERGENCE 0500 GM/HA): 50%
- plant response ([4]; PREEMERGENCE 0500 GM/HA): 80%
- plant response ([5]; POSTEMERGENCE 0064 GM/HA): 0%
- plant response ([5]; POSTEMERGENCE 0125 GM/HA): 20%
- plant response ([5]; POSTEMERGENCE 0250 GM/HA): 20%
- plant response ([5]; POSTEMERGENCE 0500 GM/HA): 80%
- plant response ([5]; PREEMERGENCE 0500 GM/HA): 100%
- plant response ([6]; POSTEMERGENCE 0064 GM/HA): 0%
- plant response ([6]; POSTEMERGENCE 0125 GM/HA): 0%
- plant response ([6]; POSTEMERGENCE 0250 GM/HA): 0%
- plant response ([6]; POSTEMERGENCE 0500 GM/HA): 30%
- plant response ([6]; PREEMERGENCE 0500 GM/HA): 90%
- plant response ([7]; POSTEMERGENCE 0064 GM/HA): 0%
- plant response ([7]; POSTEMERGENCE 0125 GM/HA): 20%
- plant response ([7]; POSTEMERGENCE 0250 GM/HA): 20%
- plant response ([7]; POSTEMERGENCE 0500 GM/HA): 30%
- plant response ([7]; PREEMERGENCE 0500 GM/HA): 40%
- plant response ([8]; POSTEMERGENCE 0064 GM/HA): 20%
- plant response ([8]; POSTEMERGENCE 0125 GM/HA): 40%
- plant response ([8]; POSTEMERGENCE 0250 GM/HA): 40%
- plant response ([8]; POSTEMERGENCE 0500 GM/HA): 80%
- plant response ([8]; PREEMERGENCE 0500 GM/HA): 50%
- plant response ([9]; POSTEMERGENCE 0064 GM/HA): 0%
- plant response ([9]; POSTEMERGENCE 0125 GM/HA): 20%
- plant response ([9]; POSTEMERGENCE 0250 GM/HA): 20%
- plant response ([9]; POSTEMERGENCE 0500 GM/HA): 50%
- plant response ([9]; PREEMERGENCE 0500 GM/HA): 90%
- plant response ([10]; POSTEMERGENCE 0064 GM/HA): 0%
- plant response ([10]; POSTEMERGENCE 0125 GM/HA): 20%
- plant response ([10]; POSTEMERGENCE 0250 GM/HA): 40%
- plant response ([10]; POSTEMERGENCE 0500 GM/HA): 60%
- plant response ([10]; PREEMERGENCE 0500 GM/HA): 100%
- plant response ([11]; POSTEMERGENCE 0064 GM/HA): 20%
- plant response ([11]; POSTEMERGENCE 0125 GM/HA): 20%
- plant response ([11]; POSTEMERGENCE 0250 GM/HA): 80%
- plant response ([11]; POSTEMERGENCE 0500 GM/HA): 100%
- plant response ([11]; PREEMERGENCE 0500 GM/HA): 100%
- plant response ([12]; POSTEMERGENCE 0064 GM/HA): 0%
- plant response ([12]; POSTEMERGENCE 0125 GM/HA): 0%
- plant response ([12]; POSTEMERGENCE 0250 GM/HA): 30%
- plant response ([12]; POSTEMERGENCE 0500 GM/HA): 80%
- plant response ([12]; PREEMERGENCE 0500 GM/HA): 70%
